The source of these data is patent US11926604B2, “Myelination stimulator compounds, and methods of treatment” (priority 2018, dated 2024).

The structures appear in SMILES notation.

The half-life is the time in which the quantity being followed falls by half. As usually defined, the LD50 is the dose at which mortality reaches 50%.

Data set [1] concerns C57BL/6 mice. Nature of the data set: Myelination in newborn mice in normoxia. It counts as in vivo, mouse. An excerpt: FIG. 3. depicts results of studies of myelination in newborn mice in normoxia. FIG. 3. Myelin basic protein (MBP), O4 and O1 labeling of coronal forebrain at level of corpus callosum (cc) of newborn mice treated with vehicle or drug (K261-298) from P2 to P12 in room air. Data shown are representative of at least 5 pups per treatment group. cc, corpus callosum. Scale bar=100 um.
After adult studies, pups were studied at developmental stages equivalent to preterm infants to assess effects on myelination, as reported by us^54. C57BL/6 mice were reared in room air from P2 to P12, and treated daily with the compound or vehicle. […] K261-0298 (100 mg/kg) was given by injection, as above.

Data set [2] has as its system mice. Kind of data set: Multiday toxicity study, 10 days. It counts as in vivo, mouse. As to conditions: 100 mg/kg for 10 days.
Data set [3] deals with mouse brain slices. Kind of data set: Myelination in brain slices (MBP, O1 immunostaining). It counts as cell-based. The following applies: brain slices incubated 5 days in culture, MBP labeling. The procedure:
FIG. 2. depicts the effect of compounds on myelination stimulation. FIG. 2. A. Myelin basic protein labeling (green) of brain slices incubated with compounds for 5 days in culture. *, p<0.05 vs vehicle. ANOVA. Data shown are representative at least 3 slices per treatment group per study, in at least 3 separate studies. (B) Vehicle, (C) K-261-0298. Note increased labeling.
Before undertaking in vivo testing, we assessed the ability of the lead compounds to promote OL development and myelination using mouse brain slices, as reported^62,63. Each compound and concentration was tested in triplicate, in at least three separate studies. Slices were collected at 1, 5, 9, or 13 days in vitro, fixed in 4% paraformaldehyde, and used for immunohistochemical staining.

The subject of data set [4] is mouse pups. Kind of data set: Ten-day treatment of mouse pups from P2, safety and pulmonary hypertension. It counts as in vivo. As for the experimental part:
In addition, we also treated mouse pups starting on day P2 for ten days with 100 mg/kg/day K261-0298 or vehicle. […] We also evaluated for possible pulmonary hypertension.

Data set [5] deals with hypoxia-exposed mouse. Nature of the data set: Chronic sublethal hypoxia model of PWMI, ventriculomegaly. In kind it is in vivo. More on the design: ventricle size: unit not given here. An excerpt: FIG. 4. Depicts results of studies of myelination in an animal model of white matter injury. […] Dark-field, hemi-coronal sections at the same brain levels shown. Data shown are representative of 4 pups per treatment group. Arrow depict lateral ventricles. ac, anterior commisure. Note smaller ventricle size in the drug-treated pup. Scale bar=500 um.
We have initiated preclinical testing using the chronic sublethal hypoxia model of PWMI. Mice were reared under hypoxic or normoxic conditions from P2 to P12, as reported 64. At P2, litters were placed in a Plexiglas chamber in which ambient O2 levels are maintained at 10.0±0.3% O2. Normoxic animals were exposed to room air. To date we tested K261-0298 at 100 mg/kg, and mice were treated once per day from P2 to P12. At the end of the treatment period mice were examined for ventriculomegaly, as reported^64,65. […] Compared with normoxic controls^64,66, ventricle sizes in the drug-treated hypoxia animals were similar.

Data set [6] is classed as physicochemical. As for the experimental part:
(§1) Dose-range and toxicity studies in mice. In consultation with UF veterinary staff and the IACUC committee, toxicity studies were performed. […] Compounds were dissolved in 100% DMSO and diluted with 0.9% NaCl before injecting. The IP route (100-500 ul) was used to treat 8-10 week old female adults. We used females because in some studies they are more sensitive to toxins. Experiments were performed with the 2 compounds that had the largest effect on myelination in the brain slice cultures, including K261-0298 and K261-0310. Mice were treated with a single dose.

Data set [7] concerns mice. Kind of data set: Single-dose dose-range and toxicity study in mice. In kind it is in vivo. The procedure:
as §1

Data set [8] can be described thus: Toxicokinetic sample collection, HPLC compound levels. It counts as in vivo, mouse. The following applies: single i.p. injection of 100 mg/kg, mice. The procedure: Toxicokinetic Sample Collection: After the above studies, compound kinetics were examined. Male and female mice at approximately 60 days of age were used (n=8 mice per sex). […] Samples were collected prior to dose and at 30 minutes, 2, 4, 8 and 24 hours after. Compound levels were determined by High Pressure Liquid Chromatography (HPLC) at UF.

Data set [9] relates to C57BL/6 mice. The following applies: cited from earlier work.
For data set [10] the following is noted: diazoxide, basis for dose choice; cited from earlier work.
Data set [11] relates to model of PWMI. As to conditions: neonatal therapy; cited from earlier work.
Setting [12] is: 100 mg/kg daily P2 to P12, room air, n=6.
Setting [13] is: pups from P2, ten days, 100 mg/kg/day.

For the compound `CCOCCCNC(=O)CCC1=Nc2ccccc2S(=O)(=O)N1` [Compound K261-0298, 3-(1,1-dioxido-2H-benzo[e][1,2,4]thiadiazin-3-yl)-N-(3-ethoxypropyl)propanamide], in data set [1] (setting [12]), the “decrease in O4 labeling vs. vehicle” value was 44+/−4%, the “increase in MBP labeling vs. vehicle” value is 27+/−4% and the “increase in O1 labeling vs. vehicle” value is 26+/−5%. In addition, in data set [1] (P2 to P12 in room air, p<0.02), the “O1 labeling (FIG. 3)” value is “increase in O1 labeling” and the “O4 expression (FIG. 3)” value is recorded as “reduction in O4 expression”. Besides, the “bioavailability to the brain / blood-brain-barrier penetration” value in data set [1] (inferred from changes in CNS myelination) is on record as “suggests that there is bioavailability of the compound to the brain”. Further, in data set [2], the “adverse effects on animal behavior or weight” value was “no adverse effects on animal behavior or weight loss” and the “histopathological analysis of major organs” value is “did not reveal evidence of damage in any major organs”. Besides, the gross necropsy result in data set [2] (5 treated mice) was “no gross malformations were observed”. For the same compound, the myelination in vitro result in data set [3] is reported as “stimulates myelination in vitro”. Besides, in [4] (setting [13]), the “behavior or weight gain versus vehicle” value was “without any differences in behavior or weight gain” and the survival entry is “all survived to the end of treatment”. Moreover, in [4] (ten days of treatment in pups, juveniles, adults), the pulmonary hypertension entry is given as “does not appear that this compound induces pulmonary hypertension”. Moreover, in [5] (drug-treated hypoxia animals), the “ventricle sizes compared with normoxic controls” value is “similar”. Further, the ventricle size in data set [5] (hypoxia, 100 mg/kg once per day P2 to P12, n=4) is 0.0054+/−0.00013. Also, the ventriculomegaly vs. vehicle result in [5] (hypoxia, 100 mg/kg once per day P2 to P12, p<0.03, 100 mg/kg) is given as “marked reduction in ventriculomegaly”. Besides, in data set [6], the “solubility behaviour in dosing solution” value was “more favorable solubility properties”. Besides, the tolerated single dose result in data set [7] (IP, 8-10 week old female mice) is recorded as “up to 400 mg/kg”. Moreover, the half-life in [8] (both sexes, mouse, in vivo, ip, read-out: circulating half-life (converted)) is 132 min. Moreover, in data set [8], the peak drug levels stood at 21.5 ± 2.3 µM.

On to `CC(=O)c1ccc(N2CCN(C(=O)CCC3=Nc4ccccc4S(=O)(=O)N3)CC2)cc1` [Compound K261-0310, 1-(4-(4-acetylphenyl)piperazin-1-yl)-3-(1,1-dioxido-2H-benzo[e][1,2,4]thiadiazin-3-yl)propan-1-one], for which the “solubility behaviour in dosing solution” value in [6] is “precipitated out of solution at higher concentrations”. Further, the “adverse effects at behavioral or gross necropsy levels” value in [7] (mouse, in vivo, ip, 50 mg/kg) was “no adverse effects observed”.

Take `CC1=NS(=O)(=O)c2cc(Cl)ccc2N1` [diazoxide]: in data set [9], the “myelination in room air (earlier diazoxide studies)” value is given as “increased myelination”. The LD50 in data set [10] was 265 to 392 mg/kg. For the same compound, in [11], the myelination result was “markedly improves myelination”, the neurocognitive function entry is on record as “improves neurocognitive function” and the ventriculomegaly entry is “reduces ventriculomegaly”.
